Laboratory results published in patent US7429663B2, “7-(Pyrimidin-4-yl)-Imidazo[1,2-a]Pyrimidin-5(1H)-ones as GSK3β inhibitors” (Sanofi-Aventis, priority 2002, dated 2008).

Legend:
[1] = molecular target: GSK3β (Homo sapiens, UniProt P49841); experiment: Inhibitory activity against GSK3β (33P-ATP phosphorylation of prephosphorylated GS1 peptide, two protocols); assay type: biochemical; conditions: first or second protocol not specified
Method: Inhibitory Activity of the Medicament of the Present Invention Against GSK3β Two different protocols can be used. In a first protocol : 7.5 μM of prephosphorylated GS1 peptide and 10 μM ATP (containing 300,000 cpm of 33P-ATP) were incubated in 25 mM Tris-HCl, pH 7.5, 0.6 mM DTT, 6 mM MgCl2, 0.6 mM EGTA, 0.05 mg/ml BSA buffer for 1 hour at room temperature in the presence of GSK3β (total reaction volume : 100 microliters). In a second protocol : 4.1 μM of prephosphorylated GS1 peptide and 42 μM ATP (containing 260,000 cpm 33P-ATP) were incubated in 80 mM Mes-NaOH, pH 6.5, 1 mM Mg acetate, 0.5 mM EGTA, 5 mM 2-mercaptoethanol, 0.02% Tween 20, 10% glycerol buffer for 2 hours at room temperature in the presence of GSK3β. Inhibitors were solubilised in DMSO (final solvent concentration in the reaction medium, 1%). The reaction was stopped with 100 microliters of a solution made of 25 g polyphosphoric acid (85% P2O5), 126 ml 85% H3PO4, H2O to 500 ml and then diluted to 1:100 before use. An aliquot of the reaction mixture was then transferred to Whatman P81 cation exchange filters and rinsed with the solution described above. Incorporated 33P radioactivity was determined by liquid scintillation spectrometry. The phosphorylated GS-1 peptide had the following sequence: NH2-[…](P)EDEE-COOH. […]

Sequence of GSK3β (P49841 whole entry, species assumed): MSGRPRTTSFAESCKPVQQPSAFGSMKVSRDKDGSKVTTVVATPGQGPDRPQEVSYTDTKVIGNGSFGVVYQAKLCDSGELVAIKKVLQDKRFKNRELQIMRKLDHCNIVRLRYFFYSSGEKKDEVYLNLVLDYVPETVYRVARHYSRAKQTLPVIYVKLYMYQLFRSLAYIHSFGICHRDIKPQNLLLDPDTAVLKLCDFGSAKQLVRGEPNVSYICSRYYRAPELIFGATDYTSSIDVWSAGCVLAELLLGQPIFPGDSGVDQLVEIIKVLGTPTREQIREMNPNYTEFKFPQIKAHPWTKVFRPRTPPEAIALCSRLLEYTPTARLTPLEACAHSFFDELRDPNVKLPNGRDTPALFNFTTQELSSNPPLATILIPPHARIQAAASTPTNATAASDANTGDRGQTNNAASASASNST

| SMILES | IC50 [1] [nM] | melting point [°C] |
| --- | --- | --- |
| O=c1cc(-c2ccncn2)nc2n(CCc3cccc4ccccc34)ccn12 [compound 6, 1-(2-Naphthalen-1-yl-ethyl)-7-(pyrimidin-4-yl)-1H-imidazo[1,2-a]pyrimidin-5-one] | 21 | 215 to 217 |
| O=c1cc(-c2ccncn2)nc2n(CC(O)c3ccccc3)ccn12 (stereo not shown) [compound 11, 1-(2-Hydroxy-2-phenyl-ethyl)-7-(pyrimidin-4-yl)-1H-imidazo[1,2-a]pyrimidin-5-one] |  | 159 to 161 |
| O=C(Cn1ccn2c(=O)cc(-c3ccncn3)nc12)c1ccccc1 [compound 12, 1-(2-Oxo-2-phenyl-ethyl)-7-(pyrimidin-4-yl)-1H-imidazo[1,2-a]pyrimidin-5-one] |  | 240 to 242 |
